Active and inactive are the calls of the source.
What was measured:
[1] = molecular target: Glyceraldehyde-3-phosphate dehydrogenase (Homo sapiens, UniProt P04406)
[2] = molecular target: Induced myeloid leukemia cell differentiation protein Mcl-1 (Homo sapiens, UniProt Q07820); type: functional
Aminopeptidase N = molecular target: T1, Aminopeptidase N (Plasmodium falciparum FcB1/Columbia, UniProt O96935); test: malaria alanyl aminopeptidase activity blockers – biochemical, fluorogenic H-Leu-NHMec substrate, 1536-well (AID 1445); parameters: species or system Plasmodium falciparum 3D7, 3D7
T1 sequence (O96935 whole entry): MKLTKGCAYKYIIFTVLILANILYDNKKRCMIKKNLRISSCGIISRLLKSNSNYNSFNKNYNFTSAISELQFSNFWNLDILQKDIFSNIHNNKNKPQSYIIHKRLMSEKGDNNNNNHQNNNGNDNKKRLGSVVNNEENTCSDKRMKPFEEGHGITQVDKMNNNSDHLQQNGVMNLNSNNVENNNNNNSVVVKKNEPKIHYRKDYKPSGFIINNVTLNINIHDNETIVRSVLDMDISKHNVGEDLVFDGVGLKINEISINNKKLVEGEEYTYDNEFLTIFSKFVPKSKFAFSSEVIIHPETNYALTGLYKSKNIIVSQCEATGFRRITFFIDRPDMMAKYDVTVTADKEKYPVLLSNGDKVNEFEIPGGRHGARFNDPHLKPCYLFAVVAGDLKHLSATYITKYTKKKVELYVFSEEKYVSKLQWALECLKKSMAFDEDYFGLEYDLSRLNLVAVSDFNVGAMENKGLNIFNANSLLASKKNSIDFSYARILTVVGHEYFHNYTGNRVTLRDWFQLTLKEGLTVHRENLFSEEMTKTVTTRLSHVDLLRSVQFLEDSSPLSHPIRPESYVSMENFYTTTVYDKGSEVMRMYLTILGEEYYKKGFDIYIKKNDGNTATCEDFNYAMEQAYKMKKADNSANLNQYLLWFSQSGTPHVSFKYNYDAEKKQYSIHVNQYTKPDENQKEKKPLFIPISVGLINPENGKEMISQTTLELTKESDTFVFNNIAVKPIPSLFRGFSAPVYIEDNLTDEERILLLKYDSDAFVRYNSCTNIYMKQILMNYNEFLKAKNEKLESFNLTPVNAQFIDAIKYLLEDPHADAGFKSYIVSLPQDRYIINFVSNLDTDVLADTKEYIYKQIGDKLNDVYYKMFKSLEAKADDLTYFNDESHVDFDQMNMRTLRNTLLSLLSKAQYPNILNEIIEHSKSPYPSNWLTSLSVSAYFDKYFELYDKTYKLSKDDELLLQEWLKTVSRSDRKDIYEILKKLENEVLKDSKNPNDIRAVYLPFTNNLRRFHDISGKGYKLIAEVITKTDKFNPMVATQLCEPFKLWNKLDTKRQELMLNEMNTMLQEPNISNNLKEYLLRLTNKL

[3] = molecular target: T2, Mannose-6-phosphate isomerase (Homo sapiens, UniProt P34949); test: MPI enzyme activity inhibition – biochemical, fluorescence intensity, coupled assay, primary screen (AID 1209)
T2 sequence (P34949 whole entry): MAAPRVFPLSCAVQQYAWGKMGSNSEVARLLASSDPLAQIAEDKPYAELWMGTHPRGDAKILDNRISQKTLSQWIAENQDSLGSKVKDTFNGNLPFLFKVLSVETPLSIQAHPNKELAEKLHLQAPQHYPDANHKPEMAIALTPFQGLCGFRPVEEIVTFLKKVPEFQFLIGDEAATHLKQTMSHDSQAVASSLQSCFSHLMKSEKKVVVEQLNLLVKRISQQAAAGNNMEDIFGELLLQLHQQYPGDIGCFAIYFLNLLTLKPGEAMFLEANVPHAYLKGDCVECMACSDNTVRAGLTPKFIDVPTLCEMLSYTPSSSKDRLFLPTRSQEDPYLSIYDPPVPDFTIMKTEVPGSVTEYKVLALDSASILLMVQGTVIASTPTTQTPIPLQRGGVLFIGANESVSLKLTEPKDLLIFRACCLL

[4] = molecular target: T2, Mannose-6-phosphate isomerase; test: MPI inhibition at elevated mannose 6-phosphate – biochemical, fluorescence intensity, high mannose 6-phosphate, primary screen (AID 1220)
Large T antigen = Large T antigen (Simian virus 40, UniProt P03070); type: functional, Betapolyomavirus macacae;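 also: Confirmatory-stage PubChem screen for compounds that inhibit SV40 T antigen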
Sequence of Large T antigen (P03070 whole entry): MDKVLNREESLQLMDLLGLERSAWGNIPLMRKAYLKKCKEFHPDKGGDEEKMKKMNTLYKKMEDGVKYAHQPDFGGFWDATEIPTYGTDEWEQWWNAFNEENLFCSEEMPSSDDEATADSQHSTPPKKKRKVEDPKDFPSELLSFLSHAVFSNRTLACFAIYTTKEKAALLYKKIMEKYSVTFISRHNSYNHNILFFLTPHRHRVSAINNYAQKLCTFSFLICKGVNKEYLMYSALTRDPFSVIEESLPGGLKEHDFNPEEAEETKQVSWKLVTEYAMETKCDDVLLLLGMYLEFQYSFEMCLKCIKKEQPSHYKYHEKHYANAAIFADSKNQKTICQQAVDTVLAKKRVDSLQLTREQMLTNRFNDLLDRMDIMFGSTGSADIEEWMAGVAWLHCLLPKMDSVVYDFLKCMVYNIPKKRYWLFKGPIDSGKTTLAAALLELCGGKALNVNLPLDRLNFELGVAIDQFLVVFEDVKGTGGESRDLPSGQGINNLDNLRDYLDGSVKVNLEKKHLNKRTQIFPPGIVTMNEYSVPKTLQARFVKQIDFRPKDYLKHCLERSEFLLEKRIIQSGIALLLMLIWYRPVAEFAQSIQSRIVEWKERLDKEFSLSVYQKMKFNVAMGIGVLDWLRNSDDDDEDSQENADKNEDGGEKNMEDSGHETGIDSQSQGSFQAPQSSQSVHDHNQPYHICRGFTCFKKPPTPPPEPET

[5] = molecular target: T3, Polyadenylate-binding protein 1 (Homo sapiens, UniProt P11940); test: MLLE binding blockers, Cy5 peptide tracer – biochemical, fluorescence polarization, Cy5-PAM2 peptide, secondary, miRNA deadenylation inhibitor project, dose response (AID 602260); type: functional; conditions: read-out: IC50_Mean
T3 sequence (P11940 whole entry, the tested form may be a part): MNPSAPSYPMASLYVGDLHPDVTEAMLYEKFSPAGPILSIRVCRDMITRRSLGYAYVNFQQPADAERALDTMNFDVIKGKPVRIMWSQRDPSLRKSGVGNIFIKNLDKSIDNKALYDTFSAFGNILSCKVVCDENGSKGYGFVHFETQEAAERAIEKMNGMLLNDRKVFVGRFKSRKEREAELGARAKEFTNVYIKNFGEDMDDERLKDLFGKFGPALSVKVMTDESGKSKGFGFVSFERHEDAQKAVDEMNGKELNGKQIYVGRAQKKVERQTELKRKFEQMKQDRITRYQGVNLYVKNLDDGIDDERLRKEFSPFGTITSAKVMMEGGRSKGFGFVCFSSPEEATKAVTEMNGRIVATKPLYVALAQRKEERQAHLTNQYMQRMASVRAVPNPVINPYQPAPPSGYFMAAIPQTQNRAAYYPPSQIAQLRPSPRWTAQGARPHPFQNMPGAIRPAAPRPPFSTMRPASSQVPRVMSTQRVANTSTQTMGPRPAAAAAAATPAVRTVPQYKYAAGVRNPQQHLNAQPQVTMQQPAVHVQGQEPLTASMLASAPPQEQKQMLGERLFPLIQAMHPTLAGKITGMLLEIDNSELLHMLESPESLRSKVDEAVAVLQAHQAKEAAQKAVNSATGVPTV

[6] = molecular target: T3, Polyadenylate-binding protein 1; test: MLLE domain peptide-binding blockers, IC50 – biochemical, fluorescence polarization, FITC-PAM2 peptide, dose response (AID 602259); type: functional; conditions: read-out: IC50_Mean
[7] = molecular target: T4, Rac GTPase-activating protein 1 (Homo sapiens, UniProt Q9H0H5); test: blockers of MgcRacGAP-driven Rac1 GTP hydrolysis – biochemical, ADP Hunter fluorescence, primary and confirmatory, confirmation (AID 624330); type: functional
T4 sequence (Q9H0H5 whole entry): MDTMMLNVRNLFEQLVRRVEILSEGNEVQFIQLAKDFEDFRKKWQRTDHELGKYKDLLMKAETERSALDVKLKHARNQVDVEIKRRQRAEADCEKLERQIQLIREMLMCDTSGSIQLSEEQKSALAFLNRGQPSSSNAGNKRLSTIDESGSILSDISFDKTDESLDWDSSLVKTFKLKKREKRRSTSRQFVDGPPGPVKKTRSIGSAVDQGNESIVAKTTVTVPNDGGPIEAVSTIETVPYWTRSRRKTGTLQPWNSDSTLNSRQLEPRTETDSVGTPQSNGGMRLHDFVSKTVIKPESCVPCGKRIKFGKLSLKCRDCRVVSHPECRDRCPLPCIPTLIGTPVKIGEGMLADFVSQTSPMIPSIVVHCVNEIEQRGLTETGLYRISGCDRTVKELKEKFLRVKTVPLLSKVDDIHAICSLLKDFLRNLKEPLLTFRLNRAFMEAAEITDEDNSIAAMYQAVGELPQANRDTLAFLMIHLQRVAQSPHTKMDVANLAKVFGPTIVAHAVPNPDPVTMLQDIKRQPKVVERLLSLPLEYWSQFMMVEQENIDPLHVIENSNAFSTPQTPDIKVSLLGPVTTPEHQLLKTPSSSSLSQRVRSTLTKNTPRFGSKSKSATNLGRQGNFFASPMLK

[8] = test system: Streptococcus sp. 'group A'; test: Streptococcus pyogenes SK(-)GAS viability under kanamycin – luminescence, BacTiterGlo, confirmation, counter-screen for streptokinase expression inhibitor project, dose response (AID 1900); type: functional, organism-based
Streptococcus = test: GAS UMAA2166 growth inhibition – luminescence, BacTiterGlo, counter-screen for streptokinase expression inhibitor project, dose response (AID 1915); type: functional, organism-based;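 also: potency for reduction of bacterial viability or growth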
[9] = molecular target: T5, Short transient receptor potential channel 4 (Mus musculus, UniProt Q9QUQ5); test: block of DAMGO-driven TRPC4 calcium entry – cell-based, HEK293 TRPC4/mu-opioid, Fluo-4 calcium, dose response (AID 434942); type: functional;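 also: potency of inhibitors blocking the TRPC4 calcium response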
T5 sequence (Q9QUQ5 whole entry): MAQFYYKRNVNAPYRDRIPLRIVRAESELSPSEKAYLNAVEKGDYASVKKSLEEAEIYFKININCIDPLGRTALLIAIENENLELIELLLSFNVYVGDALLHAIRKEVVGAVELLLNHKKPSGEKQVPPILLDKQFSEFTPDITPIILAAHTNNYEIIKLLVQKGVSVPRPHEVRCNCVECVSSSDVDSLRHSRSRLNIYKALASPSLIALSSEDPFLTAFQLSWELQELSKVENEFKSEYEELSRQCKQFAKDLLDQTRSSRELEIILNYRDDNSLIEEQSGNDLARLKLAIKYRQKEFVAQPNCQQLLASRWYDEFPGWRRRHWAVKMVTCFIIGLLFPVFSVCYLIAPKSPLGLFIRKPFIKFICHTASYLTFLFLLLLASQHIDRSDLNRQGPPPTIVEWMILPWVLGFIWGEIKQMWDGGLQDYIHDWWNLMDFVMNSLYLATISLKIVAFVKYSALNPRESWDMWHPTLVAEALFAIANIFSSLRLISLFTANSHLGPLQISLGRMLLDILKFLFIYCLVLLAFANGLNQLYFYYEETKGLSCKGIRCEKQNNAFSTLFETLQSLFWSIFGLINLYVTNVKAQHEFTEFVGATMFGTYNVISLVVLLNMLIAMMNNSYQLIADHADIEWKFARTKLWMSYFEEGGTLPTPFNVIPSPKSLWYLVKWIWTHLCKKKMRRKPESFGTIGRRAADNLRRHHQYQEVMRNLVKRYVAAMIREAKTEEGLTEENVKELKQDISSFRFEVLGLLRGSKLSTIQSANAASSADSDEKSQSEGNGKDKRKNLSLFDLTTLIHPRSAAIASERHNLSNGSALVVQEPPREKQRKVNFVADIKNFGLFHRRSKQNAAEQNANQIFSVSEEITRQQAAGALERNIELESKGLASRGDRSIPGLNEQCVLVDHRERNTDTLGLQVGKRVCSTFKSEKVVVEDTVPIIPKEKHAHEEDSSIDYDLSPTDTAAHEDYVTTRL

[10] = molecular target: T6, Replicative DNA helicase DnaB (Mycobacterium tuberculosis, UniProt P9WMR3); test: DnaB intein splicing inhibitors, dose response, biochemical, cell-free fluorescence (AID 449749); type: functional
T6 sequence (P9WMR3 whole entry): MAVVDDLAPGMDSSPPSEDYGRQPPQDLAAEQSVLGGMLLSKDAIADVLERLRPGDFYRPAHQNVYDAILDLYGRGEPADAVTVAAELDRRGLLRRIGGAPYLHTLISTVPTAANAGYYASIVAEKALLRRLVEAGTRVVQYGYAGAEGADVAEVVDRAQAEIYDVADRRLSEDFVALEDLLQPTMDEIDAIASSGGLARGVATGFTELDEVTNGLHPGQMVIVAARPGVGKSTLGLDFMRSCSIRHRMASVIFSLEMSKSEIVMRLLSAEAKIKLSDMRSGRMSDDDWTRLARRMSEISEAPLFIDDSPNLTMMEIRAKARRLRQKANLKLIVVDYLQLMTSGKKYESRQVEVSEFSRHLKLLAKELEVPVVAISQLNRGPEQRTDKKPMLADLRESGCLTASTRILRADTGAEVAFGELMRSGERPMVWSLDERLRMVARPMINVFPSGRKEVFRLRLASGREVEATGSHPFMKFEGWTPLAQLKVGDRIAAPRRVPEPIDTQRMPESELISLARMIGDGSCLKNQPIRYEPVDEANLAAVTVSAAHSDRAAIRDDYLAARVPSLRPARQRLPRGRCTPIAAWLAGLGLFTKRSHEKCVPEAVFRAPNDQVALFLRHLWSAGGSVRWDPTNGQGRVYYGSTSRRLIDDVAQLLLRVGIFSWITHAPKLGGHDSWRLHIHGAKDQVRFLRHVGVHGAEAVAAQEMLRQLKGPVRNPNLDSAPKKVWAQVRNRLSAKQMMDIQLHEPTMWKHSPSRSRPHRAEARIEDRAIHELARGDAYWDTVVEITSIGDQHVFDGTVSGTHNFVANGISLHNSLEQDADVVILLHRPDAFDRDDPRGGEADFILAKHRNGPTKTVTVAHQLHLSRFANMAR

Protein RecA = molecular target: T7, Protein RecA (Mycobacterium tuberculosis, UniProt P9WHJ3); test: Fluorescence Cell-Free Homogeneous Dose Retest to Identify Inhibitors of RecA-Intein Splicing Activity. [Related pubchem assays (depositor defined):AID2097, AID2223, AID489010, AID492950]; type: functional
T7 sequence (P9WHJ3 whole entry): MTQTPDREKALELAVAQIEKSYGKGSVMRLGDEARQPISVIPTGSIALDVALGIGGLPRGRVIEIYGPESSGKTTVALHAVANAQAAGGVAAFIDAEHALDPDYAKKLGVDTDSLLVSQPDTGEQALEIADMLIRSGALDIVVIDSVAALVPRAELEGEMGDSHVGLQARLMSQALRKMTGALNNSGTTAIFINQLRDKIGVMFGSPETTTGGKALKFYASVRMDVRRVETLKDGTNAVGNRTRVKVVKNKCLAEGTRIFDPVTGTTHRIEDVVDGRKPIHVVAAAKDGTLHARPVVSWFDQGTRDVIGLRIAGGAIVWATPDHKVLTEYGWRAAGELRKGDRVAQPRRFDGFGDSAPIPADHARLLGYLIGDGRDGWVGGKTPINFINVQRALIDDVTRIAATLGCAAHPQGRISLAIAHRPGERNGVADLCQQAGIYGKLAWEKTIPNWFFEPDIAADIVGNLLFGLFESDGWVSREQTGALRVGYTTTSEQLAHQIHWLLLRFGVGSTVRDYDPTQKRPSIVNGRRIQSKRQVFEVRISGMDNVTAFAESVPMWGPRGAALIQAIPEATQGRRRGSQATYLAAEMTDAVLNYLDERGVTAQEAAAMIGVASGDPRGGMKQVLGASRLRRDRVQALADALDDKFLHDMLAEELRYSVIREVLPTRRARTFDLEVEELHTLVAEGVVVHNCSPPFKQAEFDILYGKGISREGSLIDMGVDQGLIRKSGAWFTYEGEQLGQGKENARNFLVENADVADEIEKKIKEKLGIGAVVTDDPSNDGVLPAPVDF

Sequence of Glyceraldehyde-3-phosphate dehydrogenase (P04406 whole entry): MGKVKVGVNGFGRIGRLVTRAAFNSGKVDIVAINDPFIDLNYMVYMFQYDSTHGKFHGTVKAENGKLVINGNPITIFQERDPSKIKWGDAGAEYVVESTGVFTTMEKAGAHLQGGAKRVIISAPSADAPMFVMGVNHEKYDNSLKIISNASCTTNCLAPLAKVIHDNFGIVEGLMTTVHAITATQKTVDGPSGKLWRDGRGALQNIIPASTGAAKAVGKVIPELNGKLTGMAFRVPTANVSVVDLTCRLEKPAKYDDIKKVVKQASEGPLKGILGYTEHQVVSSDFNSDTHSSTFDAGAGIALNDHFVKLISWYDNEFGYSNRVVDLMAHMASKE
Sequence of Induced myeloid leukemia cell differentiation protein Mcl-1 (Q07820 whole entry): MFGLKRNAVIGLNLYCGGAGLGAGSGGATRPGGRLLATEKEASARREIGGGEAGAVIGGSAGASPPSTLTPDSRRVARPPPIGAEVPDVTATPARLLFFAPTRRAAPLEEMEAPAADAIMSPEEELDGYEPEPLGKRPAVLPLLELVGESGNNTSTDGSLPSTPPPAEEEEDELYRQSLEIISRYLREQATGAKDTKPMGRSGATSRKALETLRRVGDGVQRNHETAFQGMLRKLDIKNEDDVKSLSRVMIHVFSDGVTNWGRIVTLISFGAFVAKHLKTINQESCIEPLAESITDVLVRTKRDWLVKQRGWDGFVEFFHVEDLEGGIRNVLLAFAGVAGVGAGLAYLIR

`COc1ccc(N2CCN(C3=C(Cl)C(=O)N(c4cccc(OC)c4)C3=O)CC2)cc1` was tested, and the IC50 [1] was > 50 µM (inconclusive).
In the case of `COc1ccccc1/C=C1/SC(=O)N(CCC(=O)Nc2ccc(S(=O)(=O)Nc3nccs3)cc2)C1=O`, the IC50 [2] is reported as 2.69 µM (active).
With `CC(=O)NNC(=O)c1sc(=S)n2c1[nH]c(=O)c1sccc12` the IC50 (Aminopeptidase N) was 11.6 µM (active), the IC50 [3] was > 50 µM (not active) and the IC50 [4] was > 50 µM (not active).
`C[C@H]1CN(C2=C(Cl)C(=O)N(c3ccnc(Cl)c3)C2=O)CCN1` was tested, and the IC50 [1] was > 50 µM (inconclusive).
For `Nc1nnc(S)n1N=C1C(=O)Nc2ccccc21`, the IC50 (Large T antigen) was 7.65 µM (active), the IC50 [3] was 30 µM (active) and the IC50 [4] was 4.84 µM (active). The IC50 [5] was > 66 µM (inactive), the IC50 [6] was > 66 µM (inactive) and the IC50 [7] was 57.4 µM (active).
For `Cc1[nH]n(-c2ccccc2)c(=O)c1/C=C1/C(=O)NN(c2ccc(F)c(Cl)c2)C1=O`, the EC50 [8] was 4.06 µM (active), the IC50 [2] was 5.78 µM (active) and the EC50 (Streptococcus) was 7.24 µM (active). The EC50 [9] was 5.31 µM (active), the AC50 [10] was 4.54 µM (active) and the EC50 (Protein RecA) was 12 µM (active).
`Oc1ccc(/C=N/Nc2ccnc3cc(Cl)ccc23)c(O)c1` was tested, and the IC50 [2] was 6.73 µM (active).
`CCCOc1ccc(Cc2nn3c(=O)/c(=C/c4ccco4)sc3nc2=O)cc1` was tested, and the IC50 [2] was 8.96 µM (not active).
With `O=C(NCCO)c1cc(-c2ccc(F)cc2F)n[nH]1` the IC50 [1] was > 10 µM (inconclusive).
